≈ marks a conversion by molar mass, not a printed value.
Experiments:
[1] = system: M. tuberculosis SRMV2.6 (IMPDH Tyr487Cys); assay type: cell-based, Mycobacterium tuberculosis
[2] = system: M. tuberculosis guaB2 cKD mutant; assay type: cell-based; settings: increase in potency against guaB2 cKD mutant upon guaB2 silencing

| Structure (SMILES) | MIC90 against SRMV2.6 [1] [µM] | also measured |
| --- | --- | --- |
| O=C(NCCNS(=O)(=O)c1cccc2cnccc12)C1CCCCC1 [Compound 2, N-{2-[(isoquinoline-5-sulfonyl)amino]ethyl}cyclohexanecarboxamide] | >250 | – |
| CC1CN(S(=O)(=O)c2cccc3cnccc23)CCN1C(=O)C1CCCCC1 (centres unmarked) [Compound 3, Cyclohexyl[4-(isoquinoline-5-sulfonyl)-2-methylpiperazin-1-yl]methanone] | 100 (≈ 40.2 µg/mL) | – |
| O=C(NC1CCN(S(=O)(=O)c2cccc3cnccc23)CC1)C1CCCCC1 [Compound 4, N-[1-(isoquinoline-5-sulfonyl)piperidin-4-yl]cyclohexanecarboxamide] | >100 | – |
| O=C(C1CCCCC1)N1CCC(NS(=O)(=O)c2cccc3cnccc23)CC1 [Compound 5, N-[1-(cyclohexanecarbonyl)piperidin-4-yl]isoquinoline-5-sulfonamide] | >100 | – |
| Cc1cc2c(S(=O)(=O)N3CCN(C(=O)C4CCCCC4)CC3)cccc2cn1 [Compound 6, Cyclohexyl[4-(3-methylisoquinoline-5-sulfonyl)piperazin-1-yl]methanone] | >100 | – |
| O=C(C1CCCCC1)N1CCN(S(=O)(=O)c2cccc3ccccc23)CC1 [Compound 7, Cyclohexyl[4-(naphthalene-1-sulfonyl)piperazin-1-yl]methanone] | >100 | – |
| O=C(C1CCCCC1)N1CCN(S(=O)(=O)c2ccc3ccccc3c2)CC1 [Compound 8, Cyclohexyl[4-(naphthalene-2-sulfonyl)piperazin-1-yl]methanone] | >100 | – |
| O=C(NCCNS(=O)(=O)c1cccc2cnccc12)C1CC1 [Compound 9, N-{2-[(isoquinoline-5-sulfonyl)amino]ethyl}cyclopropanecarboxamide] | 100 (≈ 31.9 µg/mL) | – |
| O=C(NCCNS(=O)(=O)c1cccc2cnccc12)C1CCC1 [Compound 10, N-{2-[(isoquinoline-5-sulfonyl)amino]ethyl}cyclobutanecarboxamide] | 100 (≈ 33.3 µg/mL) | – |
| CC(C)(C)C(=O)N1CCN(S(=O)(=O)c2cccc3cnccc23)CC1 [Compound 11, 1-[4-(isoquinoline-5-sulfonyl)piperazin-1-yl]-2,2-dimethylpropan-1-one] | 100 (≈ 36.1 µg/mL) | – |
| CC1(C(=O)N2CCN(S(=O)(=O)c3cccc4cnccc34)CC2)CCCCC1 [Compound 12, [4-(isoquinoline-5-sulfonyl)piperazin-1-yl](1-methylcyclohexyl)methanone] | >250 | – |
| O=C(c1ccccc1)N1CCN(S(=O)(=O)c2cccc3cnccc23)CC1 [Compound 15, [4-(isoquinoline-5-sulfonyl)piperazin-1-yl](phenyl)methanone] | >100 | – |
| N#Cc1cccc(C(=O)N2CCN(S(=O)(=O)c3cccc4cnccc34)CC2)c1 [Compound 16, 3-[4-(isoquinoline-5-sulfonyl)piperazine-1-carbonyl]benzonitrile] | 50 (≈ 20.3 µg/mL) | – |
| N#Cc1ccc(C(=O)N2CCN(S(=O)(=O)c3cccc4cnccc34)CC2)cc1 [Compound 17, 4-[4-(isoquinoline-5-sulfonyl)piperazine-1-carbonyl]benzonitrile] | 100 (≈ 40.6 µg/mL) | – |
| O=C(c1cc([N+](=O)[O-])cc([N+](=O)[O-])c1)N1CCN(S(=O)(=O)c2cccc3cnccc23)CC1 [Compound 19, [4-(isoquinoline-5-sulfonyl)piperazin-1-yl](3,5-dinitrophenyl)methanone] | 100 (≈ 47.1 µg/mL) | – |
| COc1cc(C(=O)N2CCN(S(=O)(=O)c3cccc4cnccc34)CC2)cc(OC)c1OC [Compound 20, [4-(isoquinoline-5-sulfonyl)piperazin-1-yl](3,4,5-trimethoxyphenyl)methanone] | >125 | – |
| O=C(NCCNS(=O)(=O)c1cccc2cnccc12)c1cc([N+](=O)[O-])cc([N+](=O)[O-])c1 [Compound 21, N-{2-[(isoquinoline-5-sulfonyl)amino]ethyl}-3,5-dinitrobenzamide] | 3.9 (≈ 1.74 µg/mL) | fold more active against SRMV2.6 than wild-type M. tuberculosis [1]: 4 fold |
| O=C(CC1CCC2(CC1)OCCO2)N1CCN(S(=O)(=O)c2cccc3cnccc23)CC1 [Compound 23, 2-(1,4-dioxaspiro[4.5]decan-8-yl)-1-[4-(isoquinoline-5-sulfonyl)piperazin-1-yl]ethan-1-one] | >250 | – |
| N#Cc1cccc(CC(=O)N2CCN(S(=O)(=O)c3cccc4cnccc34)CC2)c1 [Compound 24, 3-{2-[4-(isoquinoline-5-sulfonyl)piperazin-1-yl]-2-oxoethyl}benzonitrile] | >250 | – |
| O=C(Cc1cccc(O)c1)N1CCN(S(=O)(=O)c2cccc3cnccc23)CC1 [Compound 25, 2-(3-hydroxyphenyl)-1-[4-(isoquinoline-5-sulfonyl)piperazin-1-yl]ethan-1-one] | >250 | – |

| Structure (SMILES) | MIC90 against SRMV2.6 [1] [µM] | also measured |
| --- | --- | --- |
| COc1cccc(CC(=O)N2CCN(S(=O)(=O)c3cccc4cnccc34)CC2)c1 [Compound 26, 1-[4-(isoquinoline-5-sulfonyl)piperazin-1-yl]-2-(3-methoxyphenyl)ethan-1-one] | >250 | – |
| COc1ccc(CC(=O)N2CCN(S(=O)(=O)c3cccc4cnccc34)CC2)c(OC)c1 [Compound 27, 1-[4-(isoquinoline-5-sulfonyl)piperazin-1-yl]-2-(2,4-dimethoxyphenyl)ethan-1-one] | >250 | – |
| Cc1cccc(CC(=O)N2CCN(S(=O)(=O)c3cccc4cnccc34)CC2)c1 [Compound 28, 1-(4-(isoquinolin-5-ylsulfonyl)piperazin-1-yl)-2-(m-tolyl)ethan-1-one] | >250 | – |
| O=C(Cc1ccc(F)cc1)N1CCN(S(=O)(=O)c2cccc3cnccc23)CC1 [Compound 29, 2-(4-fluorophenyl)-1-(4-(isoquinolin-5-ylsulfonyl)piperazin-1-yl)ethan-1-one] | >100 | – |
| O=C(Cc1ccc([N+](=O)[O-])cc1)N1CCN(S(=O)(=O)c2cccc3cnccc23)CC1 [Compound 30, 1-(4-(isoquinolin-5-ylsulfonyl)piperazin-1-yl)-2-(4-nitrophenyl)ethan-1-one] | >250 | – |
| N#Cc1cccc(NC(=O)N2CCN(S(=O)(=O)c3cccc4cnccc34)CC2)c1 [Compound 31, N-(3-cyanophenyl)-4-(isoquinolin-5-ylsulfonyl)piperazine-1-carboxamide] | 31.2 (≈ 13.2 µg/mL) | – |
| O=C(Nc1cccc(C(F)(F)F)c1)N1CCN(S(=O)(=O)c2cccc3cnccc23)CC1 [Compound 32, 4-(isoquinolin-5-ylsulfonyl)-N-(3-(trifluoromethyl)phenyl)piperazine-1-carboxamide] | 125 (≈ 58.1 µg/mL) | – |
| O=C(Nc1ccc(Cl)cc1)N1CCN(S(=O)(=O)c2cccc3cnccc23)CC1 [Compound 33, N-(4-chlorophenyl)-4-(isoquinolin-5-ylsulfonyl)piperazine-1-carboxamide] | >250 | – |
| O=C(Nc1ccc(Cl)c(C(F)(F)F)c1)N1CCN(S(=O)(=O)c2cccc3cnccc23)CC1 [Compound 34, N-(4-chloro-3-(trifluoromethyl)phenyl)-4-(isoquinolin-5-ylsulfonyl)piperazine-1-carboxamide] | 50 (≈ 24.9 µg/mL) | – |
| O=C(Nc1ccc(Cl)c([N+](=O)[O-])c1)N1CCN(S(=O)(=O)c2cccc3cnccc23)CC1 [Compound 35, N-(4-chloro-3-nitrophenyl)-4-(isoquinolin-5-ylsulfonyl)piperazine-1-carboxamide] | >100 | – |
| O=C(Nc1ccc(F)c(Cl)c1)N1CCN(S(=O)(=O)c2cccc3cnccc23)CC1 [Compound 36, N-(3-chloro-4-fluorophenyl)-4-(isoquinolin-5-ylsulfonyl)piperazine-1-carboxamide] | 62.5 (≈ 28.1 µg/mL) | – |
| O=C(Nc1cccc(Cl)c1Cl)N1CCN(S(=O)(=O)c2cccc3cnccc23)CC1 [Compound 37, N-(2,3-dichlorophenyl)-4-(isoquinolin-5-ylsulfonyl)piperazine-1-carboxamide] | >250 | – |
| Cc1ccc(NC(=O)N2CCN(S(=O)(=O)c3cccc4cnccc34)CC2)cc1Cl [Compound 38, N-(3-chloro-4-methylphenyl)-4-(isoquinolin-5-ylsulfonyl)piperazine-1-carboxamide] | 100 (≈ 44.5 µg/mL) | – |
| Cc1ccc(NC(=O)N2CCN(S(=O)(=O)c3cccc4cnccc34)CC2)c([N+](=O)[O-])c1 [Compound 39, 4-(isoquinolin-5-ylsulfonyl)-N-(4-methyl-2-nitrophenyl)piperazine-1-carboxamide] | 25 (≈ 11.4 µg/mL) | – |
| Cc1cccc(Cl)c1NC(=O)N1CCN(S(=O)(=O)c2cccc3cnccc23)CC1 [Compound 40, N-(2-chloro-6-methylphenyl)-4-(isoquinolin-5-ylsulfonyl)piperazine-1-carboxamide] | >250 | – |
| O=C(Nc1ccc2c(c1)OCO2)N1CCN(S(=O)(=O)c2cccc3cnccc23)CC1 [Compound 41, N-(benzo[d][1,3]dioxol-5-yl)-4-(isoquinolin-5-ylsulfonyl)piperazine-1-carboxamide] | >100 | – |
| O=S(=O)(c1cccc2cnccc12)N1CCN(C(=S)Nc2ccc3c(c2)OCO3)CC1 [Compound 42, N-(benzo[d][1,3]dioxol-5-yl)-4-(isoquinolin-5-ylsulfonyl)piperazine-1-carbothioamide] | >100 | – |
| O=C(Nc1ccc2c(c1)OCO2)N1CCC(NS(=O)(=O)c2cccc3cnccc23)CC1 [Compound 43, 4-[(isoquinoline-5-sulfonyl)amino]-N-(2H-1,3-benzodioxol-5-yl)piperidine-1-carboxamide] | >100 | – |
| COc1cccc(CNC(=O)N2CCN(S(=O)(=O)c3cccc4cnccc34)CC2)c1 [Compound 47, 4-(isoquinolin-5-ylsulfonyl)-N-(3-methoxybenzyl)piperazine-1-carboxamide] | – | Hyper-sensitivity to guaB2 cKD [2]: 8-fold |
| O=C(OCc1ccccc1)N1CCN(S(=O)(=O)c2cccc3cnccc23)CC1 [Compound 49, Benzyl 4-(isoquinolin-5-ylsulfonyl)piperazine-1-carboxylate] | 100 (≈ 41.1 µg/mL) | – |
